The values below come from ChEMBL document CHEMBL4342403, “New evolutions in the BACE1 inhibitor field from 2014 to 2018” (Bioorg Med Chem Lett, 2019).

In data set [1] the target is T1, Beta-secretase 1 (Homo sapiens, UniProt P56817). Description: Inhibition of human BACE1 catalytic domain preincubated for 30 mins followed by QSY7-EISEVNLDAEFC-Europium-amide substrate addition and measured after […] by HTRF assay.
Data set [2] concerns the target T2, Beta-secretase 2 (Homo sapiens, UniProt Q9Y5Z0).
T2 sequence (Q9Y5Z0 whole entry): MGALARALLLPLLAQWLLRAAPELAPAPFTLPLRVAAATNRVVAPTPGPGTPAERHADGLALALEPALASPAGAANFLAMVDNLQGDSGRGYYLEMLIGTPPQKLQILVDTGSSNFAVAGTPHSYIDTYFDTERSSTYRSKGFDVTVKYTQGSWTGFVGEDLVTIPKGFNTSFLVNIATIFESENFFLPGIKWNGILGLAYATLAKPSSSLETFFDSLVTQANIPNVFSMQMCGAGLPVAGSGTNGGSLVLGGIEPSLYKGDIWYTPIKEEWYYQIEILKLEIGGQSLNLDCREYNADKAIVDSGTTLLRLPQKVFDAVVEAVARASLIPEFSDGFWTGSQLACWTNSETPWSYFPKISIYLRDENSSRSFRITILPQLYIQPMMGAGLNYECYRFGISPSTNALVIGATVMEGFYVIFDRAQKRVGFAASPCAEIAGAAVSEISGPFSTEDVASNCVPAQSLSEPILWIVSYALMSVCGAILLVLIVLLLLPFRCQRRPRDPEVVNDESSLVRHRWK
Description: Inhibition of human BACE2 preincubated for 30 mins followed by QSY7- EISEVNLDAEFC-Eu-amide substrate addition and measured after […] by HTRF assay.

Data set [3] has as its target T1, Beta-secretase 1. Put plainly: Inhibition of BACE1 (unknown origin).
The target in data set [4] is T1, Beta-secretase 1. Description: Inhibition of BACE1 (unknown origin) by cell-based assay.
Data set [5] addresses T1, Beta-secretase 1. Description: Inhibition of BACE1 in HEK293 cells harboring APP assessed as reduction in amyloidbeta 40 level incubated for 18 to 20 hrs by AlphaLISA Assay. Type of data set: cell-based.
Data set [6] has as its target T1, Beta-secretase 1. Description: Inhibition of BACE1 in human SH-SY5Y cells expressing betaAPP assessed as reduction in amyloidbeta (1 to 40 residues) level incubated for 24 hrs by HTRF assay. Type of data set: cell-based.
Data set [7] concerns the target T2, Beta-secretase 2. Put plainly: Inhibition of BACE2 (unknown origin).
The next data set has as its target P-glycoprotein (ABCB1) (Homo sapiens, UniProt P08183). Put plainly: Substrate activity at p-glycoprotein (unknown origin) assessed as efflux ratio. To be noted: not told.
For data set [8], the target named is T1, Beta-secretase 1. Description: Inhibition of BACE1 (unknown origin) assessed as reduction in amyloidbeta 40 level after 24 hrs by cell-based sandwich ELISA.
Data set [9] is described as follows: Dissociation constant, pKa of the compound. Type of data set: physicochemical.

T1 sequence (P56817 whole entry, the tested form may be a part): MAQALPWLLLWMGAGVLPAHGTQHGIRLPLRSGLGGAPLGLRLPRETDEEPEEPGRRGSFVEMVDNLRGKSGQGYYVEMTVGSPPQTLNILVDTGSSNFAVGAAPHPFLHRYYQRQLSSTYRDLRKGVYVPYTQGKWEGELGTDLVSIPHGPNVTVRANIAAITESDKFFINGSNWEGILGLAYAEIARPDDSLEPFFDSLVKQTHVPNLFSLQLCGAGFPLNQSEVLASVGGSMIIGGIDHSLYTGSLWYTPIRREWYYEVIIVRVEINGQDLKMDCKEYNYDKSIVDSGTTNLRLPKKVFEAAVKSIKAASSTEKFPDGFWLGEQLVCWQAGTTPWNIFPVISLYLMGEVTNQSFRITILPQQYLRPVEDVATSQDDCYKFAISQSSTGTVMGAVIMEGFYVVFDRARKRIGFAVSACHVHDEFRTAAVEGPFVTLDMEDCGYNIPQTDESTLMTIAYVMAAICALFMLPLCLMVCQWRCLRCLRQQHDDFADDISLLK
Sequence of P-glycoprotein (ABCB1) (P08183 whole entry): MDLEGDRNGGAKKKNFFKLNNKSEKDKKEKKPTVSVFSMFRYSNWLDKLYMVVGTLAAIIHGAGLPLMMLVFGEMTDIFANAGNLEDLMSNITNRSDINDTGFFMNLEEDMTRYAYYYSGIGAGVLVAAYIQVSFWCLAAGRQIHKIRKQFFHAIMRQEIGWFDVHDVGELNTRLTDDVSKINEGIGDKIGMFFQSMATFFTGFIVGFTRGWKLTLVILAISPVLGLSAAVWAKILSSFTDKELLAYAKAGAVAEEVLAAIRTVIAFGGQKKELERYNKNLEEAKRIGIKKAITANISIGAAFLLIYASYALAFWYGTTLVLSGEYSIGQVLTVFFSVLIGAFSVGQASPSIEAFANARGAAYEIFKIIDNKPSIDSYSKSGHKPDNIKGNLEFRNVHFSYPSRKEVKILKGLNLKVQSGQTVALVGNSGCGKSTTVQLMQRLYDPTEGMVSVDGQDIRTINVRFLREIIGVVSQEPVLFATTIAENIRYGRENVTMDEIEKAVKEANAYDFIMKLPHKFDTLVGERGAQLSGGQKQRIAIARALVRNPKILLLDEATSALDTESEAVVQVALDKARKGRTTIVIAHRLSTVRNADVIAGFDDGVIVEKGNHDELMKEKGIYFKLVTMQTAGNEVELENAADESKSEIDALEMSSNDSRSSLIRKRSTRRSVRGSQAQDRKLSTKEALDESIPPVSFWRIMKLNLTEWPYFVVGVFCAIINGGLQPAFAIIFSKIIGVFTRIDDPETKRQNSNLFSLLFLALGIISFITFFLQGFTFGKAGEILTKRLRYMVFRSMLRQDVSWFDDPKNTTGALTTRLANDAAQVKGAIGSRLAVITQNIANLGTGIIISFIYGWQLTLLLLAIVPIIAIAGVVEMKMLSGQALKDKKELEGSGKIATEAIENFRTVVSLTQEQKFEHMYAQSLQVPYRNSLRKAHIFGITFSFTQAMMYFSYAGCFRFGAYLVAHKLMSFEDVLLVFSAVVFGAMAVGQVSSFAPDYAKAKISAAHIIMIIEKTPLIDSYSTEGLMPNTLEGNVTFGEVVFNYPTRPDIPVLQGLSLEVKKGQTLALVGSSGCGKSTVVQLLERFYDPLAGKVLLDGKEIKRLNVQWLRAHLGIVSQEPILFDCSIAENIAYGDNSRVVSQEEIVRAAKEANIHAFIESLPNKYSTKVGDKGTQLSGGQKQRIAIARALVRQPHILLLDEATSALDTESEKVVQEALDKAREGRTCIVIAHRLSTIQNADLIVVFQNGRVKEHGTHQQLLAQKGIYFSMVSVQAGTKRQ

As for `CN=[S@@]1(=O)C[C@@](C)(c2cc(NC(=O)c3ccc(Cl)cn3)ccc2F)N=C(N)C1(C)C`, the Ki stood at 3 nM at Beta-secretase 1 [1] and 1 nM on Beta-secretase 2 [2].

Take `Cn1cc2n(c1=O)C[C@@](C)(c1cc(NC(=O)c3ccc(C#N)cn3)ccc1F)N=C2N`: the IC50 against Beta-secretase 1 [3] came to 3.9 nM; on Beta-secretase 1 [4], 13.2 nM.

Turning to `C[C@@]1(c2nc(NC(=O)c3ccc(C#N)cn3)ccc2F)C[C@@H](C(F)(F)F)OC(N)=N1`, the half-maximal inhibitory concentration (IC50) at Beta-secretase 1 [5] stood at 3.4 nM. Consider `CN=S1(=O)C[C@@](C)(c2cc(NC(=O)c3ccc(Cl)cn3)ccc2F)N=C(N)N1C` (single isomer, unassigned), for which the inhibition constant Ki on Beta-secretase 1 [1] is 5 nM; on Beta-secretase 2 [2], 1 nM. For `COC[C@H]1SC(N)=N[C@](C)(c2cc(NC(=O)c3ccc(C#N)cn3)ccc2F)[C@H]1F`, at Beta-secretase 1 [6], the IC50 came to 1 nM. Take `C[C@@]1(c2cc(NC(=O)c3ccc(C#N)cc3)ccc2F)Cn2cnc(C(F)F)c2C(N)=N1`: the IC50 was 3.5 nM against Beta-secretase 1 [3], 0.95 nM against Beta-secretase 1 [4] and 15.8 nM against Beta-secretase 2 [7]. For `CN1C(=N)N[C@]2(C)c3cc(NC(=O)c4ccc(C#N)cn4)ccc3OCC[C@H]2S1(=O)=O` (relative stereo), the Ki at Beta-secretase 1 [1] was 1 nM; at Beta-secretase 2 [2] it was 14 nM. Regarding `C[C@@]1(c2cc(NC(=O)c3cnc(OCF)cn3)ccc2F)C[C@@H](C(F)F)SC(N)=N1`, the IC50 came to 6.23 nM at Beta-secretase 1 [3] and 0.19 nM at Beta-secretase 2 [7]. In addition, on P-glycoprotein (ABCB1), the efflux ratio was 1.1. On to `CN=S1(=O)C[C@@](C)(c2cc(-c3cc(-c4ncc(OC)cn4)no3)ccc2F)N=C(N)N1C` (single isomer, unassigned), for which the half-maximal inhibitory concentration (IC50) on Beta-secretase 1 [5] came out at 22 nM. Regarding `CN1C(=N)N[C@]2(C)c3cc(NC(=O)c4ccc(C#N)cn4)ccc3OCC[C@@H]2S1(=O)=O` (relative stereo), the Ki at Beta-secretase 1 [1] came out at 47 nM; on Beta-secretase 2 [2], 303 nM. The corresponding values for `CN1C(N)=N[C@](C)(c2cc(NC(=S)c3ccc(C#N)cn3)ccc2F)CS1(=O)=O` are 9.1 nM and 1 nM. Regarding `CC(F)(F)[C@@H]1C[C@@](C)(c2cc(NC(=O)c3ccc(OCF)cn3)ccc2F)N=C(N)S1`, the values for the IC50 against Beta-secretase 1 [3] and against Beta-secretase 2 [7] were 6.13 nM and 0.5 nM, respectively. For the same compound, the efflux ratio on P-glycoprotein (ABCB1) was 1.6. Consider `Cc1cc(C#N)cnc1C(=O)Nc1ccc(F)c([C@]2(C)CS(=O)(=NCC(F)(F)F)N(C)C(N)=N2)c1` (single isomer, unassigned), for which, at Beta-secretase 1 [5], the IC50 is 0.99 nM. Still for that read-out and setting: the value for `CC#CCOc1cnc(C2=Nc3cc([C@]4(C)C[C@@H](C(F)(F)F)OC(N)=N4)c(F)cc3CN2)cn1` was 9 nM; that for `C[C@@]1(c2cc(-c3cc(-c4cnc(C#N)cn4)no3)ccc2F)C[C@@H](C(F)(F)F)OC(N)=N1` was 30 nM.

On to `N#Cc1ccc(C(=O)Nc2ccc(F)c([C@]34COC[C@H]3n3cccc3C(N)=N4)c2)nc1`, for which the IC50 came to 26.3 nM at Beta-secretase 1 [3], 15.5 nM on Beta-secretase 1 [4] and 120 nM against Beta-secretase 2 [7].

In the case of `C[C@@]1(c2nc(NC(=O)c3ccc(C#N)cn3)ccc2F)CS2(=O)=NCCCCN2C(N)=N1` (stereo partly specified), the IC50 at Beta-secretase 1 [5] is 49 nM. On to `CC1(c2cc(NC(=O)c3ccc(C#N)cn3)ccc2F)Cc2ncc(F)cc2C(N)=N1` (stereo unspecified), for which the IC50 on Beta-secretase 1 [6] turned out to be 2 nM.

As for `C[C@]1(c2cc(NC(=O)c3ccc(C#N)cn3)ccc2F)N=C(N)OCC12CC(F)(F)C2`, the IC50 on Beta-secretase 1 [6] was 0.615 nM. As to `C#CCOc1cnc(C(=O)Nc2cc(F)c(F)c([C@@]3(CF)N=C(N)S[C@H]4C[C@H]43)c2)cn1`, the IC50 on Beta-secretase 1 [8] was 0.64 nM.

In data set [9], `NC1=N[C@@]2(c3cc(CNCC(F)(F)F)c(F)cc3F)CO[C@@H](CF)C[C@H]2CS1` had a pKa of 7.9. Consider `Cc1cc(C#N)cnc1C(=O)Nc1ccc(F)c([C@]2(C)CS3(=O)=NCCCCN3C(N)=N2)c1` (stereo partly specified), for which the half-inhibitory concentration (IC50) on Beta-secretase 1 [5] was 2 nM. As for `C[C@]1(c2cc(NC(=O)c3ccc(C#N)cn3)ccc2F)N=C(N)O[C@H]2[C@@H]1OCC2(F)F`, at Beta-secretase 1 [6], the IC50 worked out at 0.391 nM. `CN1CC2(C1)C(=N)N[C@](C)(c1cc(NC(=O)c3ccc(Cl)cn3)ccc1F)CS2(=O)=O`: the Ki worked out at 6.1 nM on Beta-secretase 1 [1] and 1.2 nM at Beta-secretase 2 [2].

For `CN1C[C@@H](c2cc(NC(=O)c3ccc(C#N)cn3)ccc2F)N=C(N)C(C)(C)S1(=O)=O`, the inhibition constant (Ki) at Beta-secretase 1 [1] was 22 nM; at Beta-secretase 2 [2], 32 nM.
